According to patent publication US20190119204A1, “ROR GAMMA (RORy) MODULATORS” (Lead Pharma Holding B.V., priority 2016, published 2019):
Converted amounts (≈) assume the structure as drawn. Read-outs that look alike come from different tables or passages of the source.

Tests used:
[1] = Aqueous equilibrated solubility; assay type: physicochemical; details: thermodynamic from solid; aqueous phosphate buffer 50 mM pH 7.4, shaken overnight at RT; pH 7.5 = pH of the solubilized fraction
Method: The studied compound was accurately weighted with a target concentration of 2 mg/mL in an aqueous phosphate buffer (50 mM at pH=7.4). The solution was shaken overnight (rock'n roll shaker) at RT and protected from light (about 24 hrs). The solution was filtered in plate filter device (microplate Millipore “Solvinert” with integrated PTFE filter; 0.45 μm) and the filtrate was dosed by LC/UV method.
The studied compound was accurately weighted with a target concentration of 0.1 mg/mL in DMSO. The solution was sonicated at RT and protected from light. The reference solution was dosed by a LC/UV method and pH of the solubilized fraction was measured.

[2] = molecular target: T1, RORγ (Homo sapiens, UniProt P51449); assay: RORγ GAL4 reporter gene assay; assay type: cell-based; details: 293FT cells, luciferase readout; average of 5 experiments; read-out: RORγ GAL4 reporter gene assay pIC50 Average (converted)
T1 construct: expressed in transfected cells; host or cells: 293FT cells (Invitrogen), expression vector pFN26A (Promega)
T1 sequence (P51449 269-508 limits assumed): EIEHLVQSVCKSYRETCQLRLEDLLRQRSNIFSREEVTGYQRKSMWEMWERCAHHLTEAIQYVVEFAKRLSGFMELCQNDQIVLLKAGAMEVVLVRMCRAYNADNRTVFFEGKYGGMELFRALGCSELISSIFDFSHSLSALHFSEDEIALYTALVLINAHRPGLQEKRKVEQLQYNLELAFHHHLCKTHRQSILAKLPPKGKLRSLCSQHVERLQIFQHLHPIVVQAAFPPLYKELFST
Method: Examples 2-3 of the present […] application and example No. 37 from WO2015/082533 were tested for their ability to inhibit RORγ activity in a RORγ GAL4 reporter gene assay.
A GAL4 one-hybrid reporter system employing luciferase readout was established to determine inhibition of RORγ in 293FT cells. The RORγ ligand-binding domain (LBD) was fused to the yeast GAL4 DNA binding domain (DBD) and placed under the control of the human cytomegalovirus (CMV) immediate early promoter, using expression vector pFN26A (Promega) and standard recombinant DNA cloning methods. To serve as a control in the assay, a similar vector was generated in which the GAL4-DBD was fused to Herpes simplex virus protein 16 (VP16), a constitutive transcriptional activator.
To monitor the inhibitory effect of compounds on RORγ, a transcriptional reporter construct was used. The pGL4.35 vector (Promega) contains nine copies of the GAL4 Upstream Activator Sequence (UAS). […]
The day after transfection, cells were plated into 96 well plates, test compound was added and the plates were incubated overnight. Subsequently, the firefly luciferase activity was quantified using luciferase detection reagent and luminescence readout. […]
For compound screening, the cells were harvested (as described above) and counted. […]

[3] = tested on: IL-17A production in anti-CD3/anti-CD28 stimulated peripheral blood mononuclear cells (PBMCs); assay: Peripheral blood mononuclear cell (PBMC) IL-17 assay; assay type: cell-based; details: 120 h, human PBMCs, 5 days, IL-17A AlphaLISA, average of 11 human donors, read-out: PBMC IL-17 assay pIC50 Average (converted)
Method: Examples 2-3 of the present application and example No.37 from WO2015/082533 were tested for their ability to inhibit the IL-17A production in anti-CD3/anti-CD28 stimulated peripheral blood mononuclear cells (PBMCs) isolated from human blood.
This assay is designed to measure the levels of IL-17A secreted from anti-CD3/anti-CD28 stimulated PBMCs with the aim of measuring the inhibition of RORγ mediated IL-17A production.
The assay medium consists of 90% RPMI 1640 (Lonza), 10% heat-inactivated fetal bovine serum (FBS, Lonza) and 100 U/mL penicillin/streptomycin solution.
Anti-CD3 antibody (BD Pharmingen) was diluted to 10 μg/ml in PBS (Lonza). 30 μL of 10 μg/ml anti-CD3 solution was added to the inner 60 wells of a 96-well cell culture treated U-bottom plate (Greiner). Plates were incubated overnight (16-24 hours) at 37° C. and 5% CO2. […]
After incubation, the plates were spun down at 1500 rpm for 4 minutes and the supernatant was collected. Subsequently, the IL-17A levels in the supernatants was determined using an IL-17A AlphaLISA kit (Perkin Elmer) according to the manufacturer's protocol.
The half maximum inhibitory concentration (IC50) values for the test compounds were calculated from the IL-17A signal using GraphPad Prism software (GraphPad Software).

[4] = molecular target: T2, CYP3A4 (Homo sapiens, UniProt P08684); assay: CYP3A4 inhibition assay; assay type: in vitro ADME; details: human liver microsomes
T2 construct: containing human liver microsomes (0.1 mg/mL); from tissue; host or cells: human liver microsomes
Method: In the CYP3A4 inhibition assay, in vitro IC50 of a test compound as direct inhibitor against CYP3A4 is determined, by measuring the inhibition of the turn-over of probe substrates of CYP3A4 (Midazolam and Testosterone) to their specific metabolites i.e., 1′-Hydroxymidazolam, 6β-Hydroxytestosterone, in human liver microsomes.
Examples 2-3 of the present application and example No.37 from WO2015/082533 were tested for CYP3A4 inhibition using two different probes: midazolam and testosterone.
Test compound dissolved in DMSO at selected concentrations was added to a phosphate buffer (50 mM, pH 7.4) containing human liver microsomes (0.1 mg/mL), MgCl (6 mM) and EDTA (0.5 mM) and CYP3A probe substrate, either midazolam (3 μM). Test compound was evaluated at the concentrations 1, 3, 10 and 30 μM and the final DMSO concentration in the incubation was 0.5%. After addition of […] NADPH the mixture was incubated at 37° C. for 10 min (midazolam) or 30 min (testosterone). The reaction was terminated by addition of cold CH3CN containing internal standard, centrifuged and formation of the CYP3A specific metabolite (either 1′-hydroxymidazolam or 6-β-hydroxytestosterone) was quantified by UPLC-MS/MS. The relative CYP3A activity at each test concentration was calculated and IC50 values determined using XLfit.

[5] = molecular target: T3, hERG (human Ether-à-go-go-Related Gene) potassium channel (Homo sapiens, UniProt Q12809); assay: hERG channel patch-clamp assay; assay type: cell-based; details: CHO cells stably expressing hERG, whole-cell patch-clamp, room temperature; read-out: hERG inhibition Assay IC50
T3 construct: expressed in transfected cells
Method: The hERG assay, in which hERG is brought to expression in CHO cells, provides information of the interaction of a compound with the hERG channel. The amplitude of hERG potassium channel tail currents are recorded under control and the compound solution at different concentrations. Then the IC50 value is determined from the dose-response curve.
Examples 2-3 of the present application and example No. 37 of WO2015/082533 were tested in vitro against the hERG (human Ether-à-go-go-Related Gene) potassium channel.
Frozen CHO (Chinese hamster ovary) cells stably expressing hERG channels were thawed and seeded on glass coverslips in petri dishes. Cells were cultured in HAM's F-12 media supplemented with 10% fetal bovine serum, 100 IU/mL penicillin, 100 μg/mL streptomycin and 500 μg/mL G418 (Invitrogen, Carlsbad, Calif.) in an atmosphere of 95% air/5% CO2 at 37° C. CHO cells were ready for patch-clamping after culture for 1-5 days. hERG currents were recorded at room temperature using the whole-cell patch-clamp technique with an Axopatch 200B amplifier (Molecular Devices, Sunnyvale Calif.). […] Currents were analyzed using the pCLAMP suite of software (Molecular Devices). […]

[6] = midazolam probe, read-out: CYP3A4 inhibition Assay IC50, Midazolam probe
[7] = testosterone probe, read-out: CYP3A4 inhibition Assay IC50, Testosterone probe

T2 sequence (P08684 whole entry): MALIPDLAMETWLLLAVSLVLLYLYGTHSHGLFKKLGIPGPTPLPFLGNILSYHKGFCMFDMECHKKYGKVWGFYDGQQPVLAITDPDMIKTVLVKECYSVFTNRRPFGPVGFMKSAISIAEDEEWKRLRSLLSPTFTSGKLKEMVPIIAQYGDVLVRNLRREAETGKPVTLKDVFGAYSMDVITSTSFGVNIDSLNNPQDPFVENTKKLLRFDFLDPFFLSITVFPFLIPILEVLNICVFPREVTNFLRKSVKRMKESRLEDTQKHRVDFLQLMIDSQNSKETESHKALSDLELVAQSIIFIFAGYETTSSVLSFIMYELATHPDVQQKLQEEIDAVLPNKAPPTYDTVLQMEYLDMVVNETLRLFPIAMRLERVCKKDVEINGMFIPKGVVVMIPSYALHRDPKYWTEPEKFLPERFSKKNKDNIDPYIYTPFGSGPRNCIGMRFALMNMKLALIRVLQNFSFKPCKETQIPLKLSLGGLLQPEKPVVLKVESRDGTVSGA
T3 sequence (Q12809 whole entry): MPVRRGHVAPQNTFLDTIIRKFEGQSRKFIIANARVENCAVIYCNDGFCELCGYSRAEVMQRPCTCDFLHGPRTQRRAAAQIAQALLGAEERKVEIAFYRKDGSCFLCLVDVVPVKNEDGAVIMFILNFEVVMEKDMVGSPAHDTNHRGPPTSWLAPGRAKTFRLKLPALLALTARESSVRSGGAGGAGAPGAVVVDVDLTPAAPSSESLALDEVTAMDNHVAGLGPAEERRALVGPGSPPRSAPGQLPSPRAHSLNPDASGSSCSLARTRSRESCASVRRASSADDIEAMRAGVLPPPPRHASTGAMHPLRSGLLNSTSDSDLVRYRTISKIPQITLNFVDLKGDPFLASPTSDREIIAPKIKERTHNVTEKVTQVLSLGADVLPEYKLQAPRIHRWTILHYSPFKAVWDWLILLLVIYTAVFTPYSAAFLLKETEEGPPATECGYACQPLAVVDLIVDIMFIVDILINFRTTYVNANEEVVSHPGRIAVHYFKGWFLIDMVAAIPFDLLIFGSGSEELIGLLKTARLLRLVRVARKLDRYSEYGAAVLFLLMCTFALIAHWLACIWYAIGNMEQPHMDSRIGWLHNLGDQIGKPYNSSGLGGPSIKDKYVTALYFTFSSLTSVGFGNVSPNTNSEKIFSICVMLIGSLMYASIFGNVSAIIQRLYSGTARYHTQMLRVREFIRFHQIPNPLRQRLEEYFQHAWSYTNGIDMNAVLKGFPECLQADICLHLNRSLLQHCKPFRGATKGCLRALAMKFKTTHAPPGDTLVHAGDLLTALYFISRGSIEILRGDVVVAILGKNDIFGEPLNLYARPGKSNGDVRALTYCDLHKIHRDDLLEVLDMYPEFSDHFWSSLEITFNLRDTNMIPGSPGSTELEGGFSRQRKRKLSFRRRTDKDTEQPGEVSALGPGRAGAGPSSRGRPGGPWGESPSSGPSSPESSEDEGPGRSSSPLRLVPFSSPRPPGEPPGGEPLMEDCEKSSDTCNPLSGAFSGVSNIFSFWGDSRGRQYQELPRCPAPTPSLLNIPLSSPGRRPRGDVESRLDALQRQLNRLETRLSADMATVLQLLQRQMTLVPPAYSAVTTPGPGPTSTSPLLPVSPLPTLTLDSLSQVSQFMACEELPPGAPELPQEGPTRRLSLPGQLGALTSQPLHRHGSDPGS

For `O=C(Cc1ccc([S@+]([O-])CC2CC2)cc1)Nc1ccc([C@](O)(C(F)F)C(F)(F)F)cc1` (single isomer, unassigned) [Example 13], which solubility at 24 h [1] is on record?
Its solubility at 24 h is 93 µg/mL (≈ 202 µM).

For `O=C(Cc1ccc([S@@+]([O-])CC2CC2)cc1)Nc1ccc([C@@](O)(C(F)F)C(F)(F)F)cc1` (single isomer, unassigned) [Example 10], which solubility at 24 h [1] is on record?
The solubility at 24 h was 94.8 µg/mL (≈ 205 µM).

Which solubility at 24 h [1] does the source give for `O=C(Cc1ccc([S@+]([O-])CC2CC2)cc1)Nc1ccc([C@@](O)(C(F)F)C(F)(F)F)cc1` (single isomer, unassigned) [Example 12] here?
Its solubility at 24 h is 94.4 µg/mL (≈ 205 µM).

For `O=C(Cc1ccc(S(=O)(=O)CC2CC2)cc1)Nc1ccc([C@](O)(C(F)F)C(F)(F)F)cc1` [Example 3, (−)-2-[4-(cyclopropylmethylsulfonyl)phenyl]-N-[4-[(1S)-1-(difluoromethyl)-2,2,2-trifluoro-1-hydroxy-ethyl]phenyl]acetamide], which IC50 [2] is on record?
The IC50 was 0.0126 µM.

And the IC50 [3]?
The IC50 was 0.0251 µM.

What about the IC50 [4, 6] of the same compound?
Its IC50 is over 30 µM.

What about the IC50 [4, 7] of the same compound?
The IC50 was 16 µM.

And the IC50 [5]?
Its IC50 is 11.2 µM.

What about the solubility at 24 h [1] of the same compound?
The solubility at 24 h was under 1 µg/mL.

Which solubility at 24 h [1] does the source give for `O=C(Cc1ccc([S@@+]([O-])CC2CC2)cc1)Nc1ccc([C@](O)(C(F)F)C(F)(F)F)cc1` (single isomer, unassigned) [Example 11] here?
The solubility at 24 h was 92.5 µg/mL (≈ 200 µM).

With `O=C(Cc1ccc(S(=O)(=O)CC2CC2)cc1)Nc1ccc([C@@](O)(C(F)F)C(F)(F)F)cc1` [Example 2, (+)-2-[4-(cyclopropylmethylsulfonyl)phenyl]-N-[4-[(1R)-1-(difluoromethyl)-2,2,2-trifluoro-1-hydroxy-ethyl]phenyl]acetamide] as the compound, how does the IC50 [2] read?
Its IC50 is 0.0398 µM.

What about the IC50 [3] of the same compound?
Its IC50 is 0.0631 µM.

And the IC50 [4, 6]?
The IC50 was 24 µM.

And the IC50 [4, 7]?
The IC50 was 13 µM.

What about the IC50 [5] of the same compound?
Its IC50 is 14.2 µM.

And the solubility at 24 h [1]?
The solubility at 24 h was under 1 µg/mL.

Which solubility at 24 h [1] does the source give for `O=C(Cc1ccc([S+]([O-])CC2CC2)cc1)Nc1ccc(C(O)(C(F)F)C(F)(F)F)cc1` (centres unmarked) [Example 9, 2-[4-(cyclopropylmethylsulfinyl)phenyl]-N-[4-[1-(difluoromethyl)-2,2,2-trifluoro-1-hydroxy-ethyl]phenyl]acetamide] here?
Its solubility at 24 h is 99.4 µg/mL (≈ 215 µM).
